The supplement of paper PMC11451515

System: P12-Ichikawa
Assay: cell viability relative to DMSO control; higher = less cytotoxic
Settings: 48 h
Summary of the method: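 NOMO1 or SEM (500 cells/well) or P12-Ichikawa (1000 cells/well) leukemia cells were adapted for at least four passages in each medium. They were seeded in 1536-well plates (5 μl) and pin-dosed with library compounds in DMSO over an 11-point threefold series, 47 μM to 0.79 nM. CellTiter-Glo One luminescence was read after 48 h at 37°C. Viability is the per-plate percentage relative to DMSO wells, with cell-free wells as background.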

[1] = HPLM + 10% dialyzed FBS, 0.000781 µM
[2] = HPLM + 10% dialyzed FBS, 0.00234 µM
[3] = HPLM + 10% dialyzed FBS, 0.00702 µM
[4] = HPLM + 10% dialyzed FBS, 0.0211 µM
[5] = HPLM + 10% dialyzed FBS, 0.0632 µM
[6] = HPLM + 10% dialyzed FBS, 0.19 µM
[7] = HPLM + 10% dialyzed FBS, 0.569 µM
[8] = HPLM + 10% dialyzed FBS, 1.71 µM
[9] = HPLM + 10% dialyzed FBS, 5.12 µM
[10] = HPLM + 10% dialyzed FBS, 15.4 µM
[11] = HPLM + 10% dialyzed FBS, 46.1 µM
[12] = RPMI 5 mM glucose + 10% FBS, 0.000781 µM
[13] = RPMI 5 mM glucose + 10% FBS, 0.00234 µM
[14] = RPMI 5 mM glucose + 10% FBS, 0.00702 µM
[15] = RPMI 5 mM glucose + 10% FBS, 0.0211 µM
[16] = RPMI 5 mM glucose + 10% FBS, 0.0632 µM
[17] = RPMI 5 mM glucose + 10% FBS, 0.19 µM
[18] = RPMI 5 mM glucose + 10% FBS, 0.569 µM
[19] = RPMI 5 mM glucose + 10% FBS, 1.71 µM
[20] = RPMI 5 mM glucose + 10% FBS, 5.12 µM
[21] = RPMI 5 mM glucose + 10% FBS, 15.4 µM
[22] = RPMI 5 mM glucose + 10% FBS, 46.1 µM
[23] = RPMI 5 mM glucose + 10% dialyzed FBS, 0.000781 µM
[24] = RPMI 5 mM glucose + 10% dialyzed FBS, 0.00234 µM
[25] = RPMI 5 mM glucose + 10% dialyzed FBS, 0.00702 µM
[26] = RPMI 5 mM glucose + 10% dialyzed FBS, 0.0211 µM
[27] = RPMI 5 mM glucose + 10% dialyzed FBS, 0.0632 µM
[28] = RPMI 5 mM glucose + 10% dialyzed FBS, 0.19 µM
[29] = RPMI 5 mM glucose + 10% dialyzed FBS, 0.569 µM
[30] = RPMI 5 mM glucose + 10% dialyzed FBS, 1.71 µM
[31] = RPMI 5 mM glucose + 10% dialyzed FBS, 5.12 µM
[32] = RPMI 5 mM glucose + 10% dialyzed FBS, 15.4 µM
[33] = RPMI 5 mM glucose + 10% dialyzed FBS, 46.1 µM

Compound | cell viability [1] | cell viability [2] | cell viability [3] | cell viability [4] | cell viability [5] | cell viability [6] | cell viability [7] | cell viability [8] | cell viability [9] | cell viability [10] | cell viability [11] | cell viability [12] | cell viability [13] | cell viability [14] | cell viability [15] | cell viability [16] | cell viability [17] | cell viability [18] | cell viability [19] | cell viability [20] | cell viability [21] | cell viability [22] | cell viability [23] | cell viability [24] | cell viability [25] | cell viability [26] | cell viability [27] | cell viability [28] | cell viability [29] | cell viability [30] | cell viability [31] | cell viability [32] | cell viability [33]
OC[C@H]1OC(OC2=CC3=C(C(=C2)O)C(=O)\C(=C/O3)C4=CC=C(O)C=C4)[C@H](O)[C@@H](O)[C@@H]1O (some centres undefined) | 87.8% | 90.5% | 91.9% | 81.5% | 86.2% | 86.9% | 86.1% | 84.1% | 76% | 80.5% | 81.3% | 76.4% | 89.3% | 83.8% | 88.7% | 95.2% | 83.2% | 82.9% | 78% | 79% | 82.4% | 85.6% | 82.5% | 85.1% | 90.6% | 88.1% | 86% | 82.9% | 69.3% | 86.3% | 71.7% | 79.7% | 80%
CC1=C(/C=C/C(C)=C/C=C/C(C)=C/C(=O)O)C(C)(C)CCC1 | 116% | 125% | 121% | 121% | 127% | 119% | 132% | 126% | 123% | 111% | 104% |  |  |  |  |  |  |  |  |  |  |  |  |  |  |  |  |  |  |  |  |  | 
Cc1ccc(-c2cc(C(F)(F)F)nn2-c2ccc([S+](N)(=O)[O-])cc2)cc1 | 86.8% | 125% | 118% | 118% | 120% | 110% | 128% | 117% | 115% | 112% | 105% |  |  |  |  |  |  |  |  |  |  |  | 111% | 119% | 122% | 113% | 115% | 123% | 123% | 122% | 121% | 105% | 102%
CN(C)CCc1c[nH]c2ccc(C[S+](=O)([O-])N3CCCC3)cc12 | 104% | 105% | 110% | 114% | 114% | 113% | 114% | 111% | 107% | 110% | 84.4% | 106% | 110% | 110% | 116% | 109% | 115% | 118% | 111% | 111% | 99.8% | 87.5% | 97.1% | 101% | 108% | 106% | 113% | 107% | 117% | 113% | 104% | 96% | 84.2%
C[C@H]1Oc2cc(cnc2N)-c2c(nn(C)c2C#N)CN(C)C(=O)c2ccc(F)cc21 | 118% | 120% | 119% | 120% | 120% | 124% | 122% | 110% | 112% | 112% | 96.3% | 120% | 122% | 123% | 113% | 123% | 119% | 119% | 112% | 114% | 114% | 105% |  |  |  |  |  |  |  |  |  |  | 
N#C/C(=C1/Nc2ccccc2S1)c1ccnc(OCc2ccc(CN3CCOCC3)cc2)n1 | 106% | 105% | 110% | 112% | 110% | 119% | 109% | 110% | 105% | 40.1% | 37.1% | 103% | 105% | 116% | 109% | 111% | 109% | 118% | 109% | 102% | 28.8% | 33.1% | 101% | 106% | 106% | 93.1% | 105% | 104% | 108% | 107% | 102% | 44.5% | 38.6%
N[C@@H](Cc1ccc(O)c(O)c1)C(=O)O | 122% | 124% | 118% | 119% | 130% | 123% | 127% | 122% | 125% | 131% | 121% |  |  |  |  |  |  |  |  |  |  |  |  |  |  |  |  |  |  |  |  |  | 
N=C(N)Nc1ccc(C(=O)Oc2ccc3cc(C(=N)N)ccc3c2)cc1 | 88.3% | 104% | 98.8% | 92.5% | 103% | 95.5% | 88.6% | 83.9% | 87.9% | 87.4% | 72.3% | 96.4% | 93% | 99.4% | 90.5% | 102% | 95.9% | 91.1% | 97% | 88.4% | 95.7% | 52% | 83.8% | 92.3% | 86.5% | 83.4% | 89.5% | 85% | 86.7% | 87.1% | 85.1% | 83.7% | 53%
CO[C@@H]1[C@@H](O)[C@H](O)[C@@H](n2c3c(Cl)cccc3c3c4c(c5c6cccc(Cl)c6[nH]c5c32)C(=O)NC4=O)O[C@H]1CO | 109% | 100% | 108% | 106% | 100% | 81.9% | 14.3% | 5.78% | 7.57% | 4.61% | 3.32% | 101% | 104% | 103% | 103% | 94.9% | 71% | 8.36% | 6.11% | 4.86% | 3.72% | 3.9% | 97.7% | 91.4% | 96.1% | 94.7% | 85.7% | 68.4% | 14% | 7.72% | 8.77% | 6.63% | 4.8%
CCCCCN(CCC12CC3CC(CC(C3)C1)C2)C(=O)NCCCc1ccncc1 | 113% | 112% | 110% | 114% | 115% | 104% | 109% | 108% | 104% | 97.1% | 97.8% | 101% | 109% | 112% | 107% | 107% | 105% | 111% | 106% | 109% | 92.7% | 99.1% | 115% | 110% | 109% | 118% | 114% | 114% | 109% | 113% | 105% | 101% | 98.9%
C[C@@H](N)C1CC[C@@H](CC1)C(=O)NC2=CC=NC=C2 (some centres undefined) | 109% | 112% | 111% | 115% | 112% | 113% | 123% | 116% | 125% | 116% | 104% | 117% | 109% | 115% | 125% | 118% | 127% | 121% | 114% | 118% | 109% | 112% | 110% | 121% | 119% | 122% | 121% | 130% | 124% | 134% | 120% | 121% | 118%
C1CN\2C[C@@H](\N=C2S1)C3=CC=CC=C3 | 94.4% | 105% | 99.8% | 104% | 108% | 106% | 107% | 108% | 103% | 108% | 111% | 96.3% | 105% | 96% | 93.4% | 98.7% |  | 102% | 106% | 99.8% | 103% | 105% | 87% | 93.9% | 90.1% | 94.4% | 101% | 102% | 92.7% | 98.3% | 101% | 96.8% | 90.8%
Cc1cnc(Nc2ccc(CN3CCOCC3)cc2)nc1Nc1cccc([S+](=O)([O-])NC(C)(C)C)c1 | 80% | 81.1% | 81.2% | 82.7% | 89.1% | 80.3% | 83.6% | 77.3% | 9.27% | 3.06% | 1.03% | 81.2% | 83.3% | 83.8% | 84.9% | 87.7% | 74.2% | 67.9% | 76.2% | 22.9% | 5.69% | 3.76% | 69.9% | 84.2% | 74.6% | 81.3% | 81% | 72.6% | 75% | 71.6% | 31.2% | 6.47% | 5.08%
COc1ccc([S+](=O)([O-])Nc2cccnc2Nc2ccc(O)cc2)cc1 | 124% | 118% | 124% | 119% | 122% | 125% | 129% | 122% | 17.2% | 14.8% | 10.8% | 125% | 121% | 116% | 126% | 120% | 119% | 118% | 122% | 22.3% | 17.7% | 17.3% | 117% | 128% | 118% | 114% | 121% | 113% | 108% | 113% | 39% | 28% | 24%
CS[C@H]1SC[C@@H]2C(=O)N(C)[C@H](C(C)C)C(=O)OC[C@H](NC(=O)c3cnc4ccccc4n3)C(=O)N[C@H](C)C(=O)N(C)[C@H]1C(=O)N(C)[C@H](C(C)C)C(=O)OC[C@H](NC(=O)c1cnc3ccccc3n1)C(=O)N[C@H](C)C(=O)N2C | 93.5% | 97.9% | 97.7% | 59% | 6.91% | 9.39% | 11.9% | 11.9% | 9.92% | 9.92% | 13.2% | 88% | 98.9% | 74.9% | 44.9% | 6.52% | 7.51% | 8.83% | 9.76% | 7.33% | 7.34% | 6.52% | 88.5% | 91.2% | 68.6% | 29.6% | 6.86% | 8.69% | 9.15% | 9.6% | 8.79% | 11.4% | 11.8%
CC(C)Cn1cnc2c(N)nc3ccccc3c21 | 124% | 113% | 107% | 116% | 115% | 112% | 113% | 106% | 87.6% | 75.1% | 89.9% | 113% | 123% | 116% | 119% | 111% | 115% | 110% | 107% | 106% | 106% | 85.1% | 111% | 111% | 109% | 115% | 115% | 112% | 105% | 107% | 104% | 102% | 81%
CC(C)[N+]1(C)C2CCC1CC(OC(=O)C(CO)c1ccccc1)C2.O.[Br-] (centres undefined) | 98.5% | 111% | 116% | 112% | 123% | 124% | 123% | 109% | 50% | 14.1% | 7.93% | 125% | 123% | 129% | 126% | 128% | 125% | 137% | 132% | 127% | 52.5% | 13.8% | 113% | 113% | 119% | 117% | 124% | 112% | 118% | 115% | 102% | 34% | 19.3%
